In US5663297A, “Antithrombic peptides” (Hoffmann-La Roche Inc., priority 1989, dated 1997):
*1 amine or outer side, *2 acyl side, *3 side chain or, on linkers, in order; H or OH if unused. Where a SMILES comes first, the peptide text is derived from it. [ ]: non-standard residue; d: D form. The star is where a group is joined. X1 = O=C(NCCN(CC(=O)[*:2])[*:1])OCc1ccccc1; 1Nal = N[C@@H](Cc1cccc2ccccc12)C(=O)O; Gly(N-2-aminoethyl) = NCCNCC(=O)O; Cbz = O=C(OCc1ccccc1)*

What follows are compounds tested against T1, fibrinogen receptor, glycoprotein IIb/IIIa (Homo sapiens, UniProt P05106+P08514) (assay: Inhibition of fibrinogen binding to immobilized glycoprotein IIb/IIIa (ELISA)). Details: concentration required to inhibit binding of fibrinogen to the immobilized receptor from human blood platelets by 50%.
T1 construct: from tissue
T1 sequence (P08514 32-887 limits assumed): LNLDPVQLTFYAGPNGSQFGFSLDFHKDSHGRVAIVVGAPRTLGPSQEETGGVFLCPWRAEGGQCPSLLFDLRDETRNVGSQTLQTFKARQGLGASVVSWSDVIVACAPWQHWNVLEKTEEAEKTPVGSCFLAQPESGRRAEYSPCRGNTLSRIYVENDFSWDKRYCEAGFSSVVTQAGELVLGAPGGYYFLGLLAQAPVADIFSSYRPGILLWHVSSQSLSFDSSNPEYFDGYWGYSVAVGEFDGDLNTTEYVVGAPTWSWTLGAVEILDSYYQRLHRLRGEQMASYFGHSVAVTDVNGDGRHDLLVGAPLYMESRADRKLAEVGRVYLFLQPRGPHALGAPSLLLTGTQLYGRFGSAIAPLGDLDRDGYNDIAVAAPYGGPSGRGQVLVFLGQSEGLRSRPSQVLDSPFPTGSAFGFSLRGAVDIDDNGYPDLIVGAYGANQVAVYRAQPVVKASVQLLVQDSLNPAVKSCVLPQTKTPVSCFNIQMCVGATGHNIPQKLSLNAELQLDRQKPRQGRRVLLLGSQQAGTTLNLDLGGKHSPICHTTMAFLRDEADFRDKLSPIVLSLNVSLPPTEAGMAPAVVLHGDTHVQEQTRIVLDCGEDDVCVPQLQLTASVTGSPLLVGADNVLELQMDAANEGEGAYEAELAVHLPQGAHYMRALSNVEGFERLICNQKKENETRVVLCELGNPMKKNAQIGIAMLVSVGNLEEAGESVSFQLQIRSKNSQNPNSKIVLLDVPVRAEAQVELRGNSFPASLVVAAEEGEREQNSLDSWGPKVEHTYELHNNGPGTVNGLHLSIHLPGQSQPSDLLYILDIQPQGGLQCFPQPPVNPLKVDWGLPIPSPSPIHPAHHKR
T1 sequence (P08514 891-1039 partner limits assumed): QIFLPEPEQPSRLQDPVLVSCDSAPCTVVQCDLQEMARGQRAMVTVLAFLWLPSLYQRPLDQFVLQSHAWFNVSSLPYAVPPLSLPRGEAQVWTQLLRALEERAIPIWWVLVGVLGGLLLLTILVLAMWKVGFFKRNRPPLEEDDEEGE
T1 sequence (P05106 27-788): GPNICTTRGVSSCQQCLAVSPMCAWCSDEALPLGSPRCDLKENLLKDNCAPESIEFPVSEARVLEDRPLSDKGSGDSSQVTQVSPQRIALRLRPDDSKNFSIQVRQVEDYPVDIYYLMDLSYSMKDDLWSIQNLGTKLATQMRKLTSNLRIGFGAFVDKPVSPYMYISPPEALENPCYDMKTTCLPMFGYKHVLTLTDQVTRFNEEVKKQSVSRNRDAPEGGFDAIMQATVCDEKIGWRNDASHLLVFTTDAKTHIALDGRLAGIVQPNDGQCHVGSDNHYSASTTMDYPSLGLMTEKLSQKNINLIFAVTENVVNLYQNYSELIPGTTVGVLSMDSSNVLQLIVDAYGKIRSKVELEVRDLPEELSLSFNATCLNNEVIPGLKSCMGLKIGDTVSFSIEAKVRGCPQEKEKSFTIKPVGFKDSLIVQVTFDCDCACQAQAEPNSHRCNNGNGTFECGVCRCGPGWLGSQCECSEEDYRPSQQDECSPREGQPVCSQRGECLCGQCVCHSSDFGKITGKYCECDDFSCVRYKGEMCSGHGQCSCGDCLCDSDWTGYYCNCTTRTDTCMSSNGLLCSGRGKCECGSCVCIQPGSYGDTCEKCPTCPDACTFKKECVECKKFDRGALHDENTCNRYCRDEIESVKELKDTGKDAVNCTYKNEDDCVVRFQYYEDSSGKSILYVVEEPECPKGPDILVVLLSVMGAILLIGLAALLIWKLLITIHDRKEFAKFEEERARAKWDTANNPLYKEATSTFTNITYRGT
Method: The glycoprotein IIb/IIIa is obtained-from Triton X-100 extracts of human blood platelets and purified by lectin affinity chromatography (Analytical Biochemistry 151, 1985, 169-177) and chromatography on an Arg-Gly-Asp-Ser affinity column (Science 231, 1986, 1559-62). The thus-obtained receptor protein is bonded to microtitre plates. The specific binding of fibrinogen to the immobilized receptor is determined with the aid of an ELISA system ("enzyme-linked immunosorbent assay"). The IC50 values hereinafter correspond to that concentration of the test substance which is required to inhibit the binding of fibrinogen to the immobilized receptor by 50%: […]

| IC50 [nM] | SMILES |
| --- | --- |
| 22 | N=C(N)c1ccc(CC(N)C(=O)NCC(=O)N[C@@H](CC(=O)O)C(=O)N[C@@H](Cc2cccc3ccccc23)C(=O)O)cc1 (mixture of isomers) [Example 16, [3-(p-amidinophenyl)-DL-alanyl]-Gly-Asp-Nal(1)-OH] |
| 11 | N=C(N)c1ccc(CCC(=O)NCC(=O)N[C@@H](CC(=O)O)C(=O)N[C@@H](Cc2cccc3ccccc23)C(=O)O)cc1 [Example 19, (p-amidinohydrocinnamoyl)-Gly Asp-Nal(1)-OH] |
| 1.9 | CC(C)[C@H](NC(=O)[C@H](CC(=O)O)NC(=O)CNC(=O)Cc1ccc(C(=N)N)cc1)C(=O)O [Example 27, (p-amidinophenyl)acetyl-Gly-Asp-Val-OH] |
| 80 | CC(C)[C@H](NC(=O)[C@H](CC(=O)O)NC(=O)CNC(=O)C(Cc1ccc(NC(=N)N)cc1)NC(=O)OC(C)(C)C)C(=O)O (mixture of isomers) [Example 15, [N-Boc-3-(p-guanidinophenyl)-DL-alanyl]-Gly-Asp-Val-OH] |
| 35 | CC(C)[C@H](NC(=O)[C@H](CC(=O)O)NC(=O)CNC(=O)CCc1ccc(C(=N)N)cc1)C(=O)O [Example 24, (p-amidinohydrocinnamoyl)-Gly-Asp-Val-OH] |
| 5 | CC(C)[C@H](NC(=O)[C@H](CC(=O)O)NC(=O)CNC(=O)COc1ccc(C(=N)N)cc1)C(=O)O [Example 26, (p-amidinophenoxy)acetyl-Gly-Asp Val-OH] |
| 210 | CC(C)[C@H](NC(=O)[C@H](CC(=O)O)NC(=O)CNC(=O)CCc1ccc(CN)cc1)C(=O)O [Example 23, (p-aminomethylhydrocinnamoyl)-Gly-Asp-Val-OH] |
| 16 | CC(C)[C@H](NC(=O)[C@H](CC(=O)O)NC(=O)CNC(=O)C(Cc1ccc(C(=N)N)cc1)NC(=O)OC(C)(C)C)C(=O)O (mixture of isomers) [Example 17, [N-Boc-3-(p-amidinophenyl)-DL-alanyl]-Gly-Asp-Val-OH] |
| 22 | CC(C)[C@H](NC(=O)[C@H](CC(=O)O)NC(=O)CNC(=O)[C@H](N)Cc1ccc(C(=N)N)cc1)C(=O)O [Example 20, [3-(p-amidinophenyl)-D-alanyl]-Gly-Asp-Val-OH] |
| 150 | CC(C)[C@H](NC(=O)[C@H](CC(=O)O)NC(=O)CNC(=O)[C@H](CCCNC(=N)N)NC(=O)CN(CCNC(=O)OCc1ccccc1)C(=O)OCc1ccccc1)C(=O)O [Example 6, Z-Aeg(Z)-Arg-Gly-Asp-Val-OH] (Cbz-[X1]RGDV-OH) |
| 120 | CC[C@H](C)[C@H](NC(=O)[C@H](CC(=O)O)NC(=O)CNC(=O)[C@H](CCCNC(=N)N)NC(=O)CNCCN)C(=O)O [Example 11, Aeg Arg- Gly-Asp-Ile-OH] (H-[Gly(N-2-aminoethyl)]RGDI-OH) |
| 54 | CC(C)[C@H](NC(=O)[C@H](CC(=O)O)NC(=O)CNC(=O)[C@H](CCCNC1=NC2(O)CCCCC2(O)N1)NC(=O)OC(C)(C)C)C(=O)O (stereo partly drawn) [Example 14, [N2-Boc-N5-(3a,4,5,6,7,7a-hexahydro-3a,7a-dihydroxy-1H-benzimidazol-2-yl)- L-ornithyl]-Gly-Asp-Val-OH] |
| 23 | CC(C)[C@H](NC(=O)[C@H](CC(=O)O)NC(=O)CNC(=O)[C@@H](N)Cc1ccc(C(=N)N)cc1)C(=O)O [Example 25, [3-(p-amidinophenyl)-L-alanyl]-Gly-Asp-Val-OH] |
| 90 | CC(C)[C@H](NC(=O)[C@H](CC(=O)O)NC(=O)CNC(=O)[C@H](CCCNC(=N)N)NC(=O)CNCCN)C(=O)O [Example 7, Aeg-Arg-Gly-Asp-Val-OH] (H-[Gly(N-2-aminoethyl)]RGDV-OH) |
| 38 | N=C(N)NCCC[C@H](NC(=O)CNCCN)C(=O)NCC(=O)N[C@@H](CC(=O)O)C(=O)N[C@@H](Cc1cccc2ccccc12)C(=O)O [Example 10, N-Aeg-Arg-Gly-Asp-Nal(1)-OH] (H-[Gly(N-2-aminoethyl)]RGD[1Nal]-OH) |
| 110 | [N-]=[N+]=Nc1ccccc1C(=O)N[C@@H](CCCNC(=N)N)C(=O)NCC(=O)N[C@@H](CC(=O)O)C(=O)Nc1ccccc1C(=O)O [Example 13, N-[(o-azidobenzoyl)-Arg-Gly-Asp]-anthranilic acid] |
| 110 | CC(=N)NCCCC[C@H](NC(=O)OC(C)(C)C)C(=O)NCC(=O)N[C@@H](CC(=O)O)C(=O)N[C@H](C(=O)O)C(C)C [Example 12, [N2-Boc-N6 -(1-iminoethyl)-L-lysyl]Gly-Asp-Val- -OH] |
| 110 | N=C(N)NCCC[C@H](NC(=O)CNCCN)C(=O)NCC(=O)N[C@@H](CC(=O)O)C(=O)N[C@@H](CO)C(=O)O [Example 8, Aeg-Arg-Gly-Asp-Ser-OH] |

| SMILES | IC50 [nM] |
| --- | --- |
| CC(C)[C@H](NC(=O)[C@H](CC(=O)O)NC(=O)CNC(=O)C(N)Cc1ccc(C(=N)N)cc1)C(=O)O (mixture of isomers) [Example 2, [3-(p-amidinophenyl)-DL-alanyl]-Gly-Asp-Val-OH] | 16 |

The compounds below were run on mouse (assay: Acute toxicity, intravenous, mouse). Details: intravenously in the mouse.
Assay type: in vivo
Method: The compounds of formula I have a low toxicity. Thus the product of Example 2 has a LD50 of 600 mg/kg intravenously in the mouse.

| SMILES | LD50 [mg/kg] |
| --- | --- |
| CC(C)[C@H](NC(=O)[C@H](CC(=O)O)NC(=O)CNC(=O)C(N)Cc1ccc(C(=N)N)cc1)C(=O)O (mixture of isomers) [Example 2, [3-(p-amidinophenyl)-DL-alanyl]-Gly-Asp-Val-OH] | 600 |
